Values after ≈ are worked out from the molar mass of the structure shown. Where two headings read alike, the source gives them in different places.
What was measured:
A. baumannii A401 [1] = assay: MIC without and with sub-inhibitory polymyxin B (Example 4); assay type: cell-based, Acinetobacter baumannii; settings: for MIC: Acinetobacter baumannii, A401, A baumannii A 401, without polymyxin B, read-out: MIC without PB
A. baumannii A329 [2] = assay: Preliminary MBC without and with sub-inhibitory polymyxin B (Example 4); assay type: cell-based, Acinetobacter baumannii; settings: Acinetobacter baumannii, A329, A. baumannii A329, without polymyxin B, read-out: MBC without PB
A. baumannii A473 [3] = assay: MIC without and with sub-inhibitory polymyxin B (Example 4); assay type: cell-based, Acinetobacter baumannii; settings: Acinetobacter baumannii, A473, A. baumannii A473, without polymyxin B, read-out: MIC without PB
A. baumannii A401 [4] = assay: Preliminary MBC without and with sub-inhibitory polymyxin B (Example 4); assay type: cell-based, Acinetobacter baumannii; settings: Acinetobacter baumannii, A401, A baumannii A 401, without polymyxin B, preliminary MBC, read-out: MBC without PB
A. baumannii A472 [5] = assay: MIC without and with sub-inhibitory polymyxin B (Example 4); assay type: cell-based, Acinetobacter baumannii; settings: Acinetobacter baumannii, A472, A. baumannii A472, without polymyxin B, read-out: MIC without PB
E. coli CTX-M-15 = assay: MIC, panel of quinolone-resistant strains (CLSI); assay type: cell-based; settings: Escherichia coli, CTXM15; CIP R, ESBL
A. baumannii A472 [6] = assay: MIC determination for Acinetobacter strains (Example 3); assay type: cell-based; settings: LEV R, CIP R, MRP I, IMP I, AMK R, TET R
Pseudomonas ssp PER-1 = assay: MIC, panel of quinolone-resistant strains (CLSI); assay type: cell-based, Pseudomonas spp; settings: PER1, CIP R, ESBL
A. baumannii A489 [7] = assay: Preliminary MBC without and with sub-inhibitory polymyxin B (Example 4); assay type: cell-based, Acinetobacter baumannii; settings: Acinetobacter baumannii, A489, A. baumannii A489, without polymyxin B, read-out: MBC without PB
[8] = test system: Acinetobacter sp. (H064200250); assay: as above; assay type: cell-based; settings: Acinetobacter, without polymyxin B, preliminary MBC, read-out: MBC without PB
How it was run: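 Read-out: the minimum concentration at which colonies were reduced by ca. 90% relative to positive control, usually seen as isolated colonies or a clear plate. Plates had been kept 18-20 hours at 37° C beforehand.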

A. baumannii A 401 = assay: MIC determination for Acinetobacter strains (Example 3); assay type: cell-based; settings: A401, LEV R, CIP R, AMK R, TET R
[9] = test system: resistant strains of A. baumannii and one strain of Acinetobacter sp.; assay: MIC without and with sub-inhibitory polymyxin B, whole panel / MIC ranges (Example 4; also strains not listed separately); assay type: cell-based; settings: Acinetobacter baumannii
A. baumannii A472 [10] = assay: Preliminary MBC without and with sub-inhibitory polymyxin B (Example 4); assay type: cell-based, Acinetobacter baumannii; settings: Acinetobacter baumannii, A472, A. baumannii A472, without polymyxin B, read-out: MBC without PB
[11] = test system: Acinetobacter spp. H064200250; assay: MIC determination for Acinetobacter strains (Example 3); assay type: cell-based, Acinetobacter sp.; settings: LEV R, CIP R, MRP R, IMP I
P. aeruginosa 1388-3-02 = assay: MIC, panel of quinolone-resistant strains (CLSI); assay type: cell-based; settings: Pseudomonas aeruginosa, 1388302; CIP R, POL R
E. coli 2906 = assay: MIC, panel of quinolone-resistant strains (CLSI); assay type: cell-based; settings: Escherichia coli, CIP R
Klebsiella ssp KPC-3 = assay: MIC, panel of quinolone-resistant strains (CLSI); assay type: cell-based, Klebsiella spp; settings: KPC3, CIP R, ESBL
P. aeruginosa 143-3-03 = assay: MIC, panel of quinolone-resistant strains (CLSI); assay type: cell-based; settings: Pseudomonas aeruginosa, 143303; CIP I, POL R
[12] = test system: Acinetobacter sp. (H064200250); assay: MIC without and with sub-inhibitory polymyxin B (Example 4); assay type: cell-based; settings: Acinetobacter, without polymyxin B
A. baumannii A329 [13] = assay: MIC determination for Acinetobacter strains (Example 3); assay type: cell-based; settings: LEV R, CIP R, MRP R, IMP R, AMK R, TET R
A. baumannii J2 = assay: MIC without and with sub-inhibitory polymyxin B (Example 4); assay type: cell-based, Acinetobacter baumannii; settings: Acinetobacter baumannii, J2, A. baumannii J2, without polymyxin B, read-out: MIC without PB
A. baumannii A390 = assay: Preliminary MBC without and with sub-inhibitory polymyxin B (Example 4); assay type: cell-based, Acinetobacter baumannii; settings: Acinetobacter baumannii, A390, A. baumannii A390, without polymyxin B, preliminary MBC, read-out: MBC without PB
A. baumannii A473 [14] = assay: as above; assay type: cell-based, Acinetobacter baumannii; settings: Acinetobacter baumannii, A473, A. baumannii A473, without polymyxin B, read-out: MBC without PB
A. baumannii ATCC 19606 = assay: MIC without and with sub-inhibitory polymyxin B (Example 4); assay type: cell-based, Acinetobacter baumannii; settings: Acinetobacter baumannii, ATCC19606, A. baumannii ATCC 19606, without polymyxin B, read-out: MIC without PB
A. baumannii A489 [15] = assay: as above; assay type: cell-based, Acinetobacter baumannii; settings: Acinetobacter baumannii, A489, A. baumannii A489, without polymyxin B, read-out: MIC without PB
[16] = Acinetobacter spp. H064200250 (OXA51), 2nd experiment
[17] = Acinetobacter spp. H064200250, 1st experiment
[18] = Acinetobacter spp. H064200250 (OXA51), 2nd experiment, visual reading, read-out: MIC without PB
[19] = Acinetobacter spp. H064200250, 1st experiment, read-out: MIC without PB

| SMILES | MIC (A. baumannii A401 [1]; 1st experiment) [µg/mL] | MIC (A. baumannii A473 [3]; 2nd experiment, visual reading) [µg/mL] | MBC (A. baumannii A401 [4]; 2nd experiment) [µg/mL] | MBC (A. baumannii A401 [4]; 1st experiment) [µg/mL] | MIC (A. baumannii A472 [5]; 1st experiment) [µg/mL] | MIC (A. baumannii A472 [5]; 2nd experiment, visual reading) [µg/mL] | MIC (A. baumannii A472 [6]) [µg/mL] | MBC (A. baumannii A489 [7]; 2nd experiment) [µg/mL] | MBC [8, 16] [µg/mL] | MBC [8, 17] [µg/mL] | MIC (A. baumannii A 401) [µg/mL] | MIC [11] [µg/mL] | MIC [12, 18] [µg/mL] | MIC [12, 19] [µg/mL] | MIC (A. baumannii A329 [13]) [µg/mL] | MIC (A. baumannii J2; 2nd experiment, visual reading) [µg/mL] | MBC (A. baumannii A390; 1st experiment) [µg/mL] | MBC (A. baumannii A473 [14]; 2nd experiment) [µg/mL] | MIC (A. baumannii ATCC 19606; 1st experiment) [µg/mL] | further results |
| --- | --- | --- | --- | --- | --- | --- | --- | --- | --- | --- | --- | --- | --- | --- | --- | --- | --- | --- | --- | --- |
| Cc1c(-c2ccc(N)cc2)ccn2c(=O)c(C(=O)O)cc(C3CC3)c12 [Compound 8, 8-(4-amino-phenyl)-1-cyclopropyl-9-methyl-4-oxo-quinolizine-3-carboxylic acid] | 32 (≈ 95.7 µM) | 4 (≈ 12 µM) | 8 (≈ 23.9 µM) | 8 (≈ 23.9 µM) | 4 (≈ 12 µM) | 4 (≈ 12 µM) | 4 (≈ 12 µM) | 8 (≈ 23.9 µM) | 4 (≈ 12 µM) | 4 (≈ 12 µM) | 32 (≈ 95.7 µM) | 2 (≈ 5.98 µM) | 4 (≈ 12 µM) | 2 (≈ 5.98 µM) | 16 (≈ 47.9 µM) | 4 (≈ 12 µM) | 8 (≈ 23.9 µM) | 4 (≈ 12 µM) | 1 (≈ 2.99 µM) | MBC (A. baumannii A329 [2]; 2nd experiment): 8 µg/mL (≈ 23.9 µM); MIC (E. coli CTX-M-15): > 32 µg/mL; MIC (Pseudomonas ssp PER-1): 16 µg/mL (≈ 47.9 µM); MIC ([9]; A. baumannii A14, without polymyxin B, 1st experiment, read-out: MIC without PB): 32 µg/mL (≈ 95.7 µM); MIC ([9]; NCTC13301, A. baumannii NCTC 13301, without polymyxin B, 1st experiment, read-out: MIC without PB): 32 µg/mL (≈ 95.7 µM); MIC ([9]; NCTC13301, A. baumannii NCTC 13301, without polymyxin B, 2nd experiment, visual reading, read-out: MIC without PB): 16 µg/mL (≈ 47.9 µM); MBC (A. baumannii A472 [10]; 2nd experiment): 4 µg/mL (≈ 12 µM); MIC (P. aeruginosa 1388-3-02): 8 µg/mL (≈ 23.9 µM); MIC (E. coli 2906): > 32 µg/mL; MIC (Klebsiella ssp KPC-3): 16 µg/mL (≈ 47.9 µM); MIC (P. aeruginosa 143-3-03): 2 µg/mL (≈ 5.98 µM); MIC ([12]; Acinetobacter spp. H064200250 (OXA51), 2nd experiment, MIC read with alamar blue, read-out: MIC without PB, read with alamar blue): 8 µg/mL (≈ 23.9 µM) |
| Cc1c(-c2ccc(N)c(F)c2)ccn2c(=O)c(C(=O)O)cc(C3CC3)c12 [Compound 1, 8-(3-fluoro-4-amino-phenyl)-1-cyclopropyl-9-methyl-4-oxo-quinolizine-3-carboxylic acid] | 4 (≈ 11.4 µM) | 8 (≈ 22.7 µM) | 8 (≈ 22.7 µM) | 16 (≈ 45.4 µM) | 8 (≈ 22.7 µM) | 8 (≈ 22.7 µM) | 8 (≈ 22.7 µM) | 16 (≈ 45.4 µM) | 32 (≈ 90.8 µM) | 8 (≈ 22.7 µM) | 4 (≈ 11.4 µM) | 8 (≈ 22.7 µM) | 16 (≈ 45.4 µM) | 8 (≈ 22.7 µM) | 16 (≈ 45.4 µM) | 16 (≈ 45.4 µM) | 16 (≈ 45.4 µM) | 8 (≈ 22.7 µM) | 0.25 (≈ 0.709 µM) | MIC ratio without/with polymyxin B (A. baumannii A401 [1]; A baumannii A 401, ratio MIC without PB to MIC + PB, PB 0.06 μg/ml, 2nd experiment): ≥ 512 µg/mL; MIC (A. baumannii A401 [1]; 2nd experiment, visual reading): 16 µg/mL (≈ 45.4 µM); MBC (A. baumannii A329 [2]; 1st experiment): 16 µg/mL (≈ 45.4 µM); MIC (A. baumannii A473 [3]; 1st experiment): 4 µg/mL (≈ 11.4 µM); MBC (A. baumannii A489 [7]; 1st experiment): 8 µg/mL (≈ 22.7 µM); MIC ([9]; read-out: MIC range without PB 01-10-2008 n = 8, without polymyxin B, 1st experiment, 8 strains): 1 to 32 µg/mL (≈ 2.84 to 90.8 µM); MIC ([9]; without polymyxin B, 2nd experiment, 11 strains, read-out: MIC range without PB 14-10-2008 n = 11): 4 to 32 µg/mL (≈ 11.4 to 90.8 µM); MIC (A. baumannii A489 [15]; 1st experiment): 4 µg/mL (≈ 11.4 µM); MIC (A. baumannii A489 [15]; 2nd experiment, visual reading): 16 µg/mL (≈ 45.4 µM); MBC (A. baumannii A472 [10]; 1st experiment): 8 µg/mL (≈ 22.7 µM); MIC (A. baumannii J2; 1st experiment): 8 µg/mL (≈ 22.7 µM); MBC (A. baumannii A390; 2nd experiment): 16 µg/mL (≈ 45.4 µM); MBC (A. baumannii A473 [14]; 1st experiment): 4 µg/mL (≈ 11.4 µM); MIC (A. baumannii ATCC 19606; 2nd experiment, visual reading): 0.25 µg/mL (≈ 0.709 µM) |

Source: US10155021B2, “Antimicrobial 4-oxoquinolizines” (Emergent Product Development Gaithersburg Inc., priority 2011, dated 2018)
